From PubChem BioAssay (NCI) come the findings set out here.

Some test systems named below: M14 melanoma; BT-549 breast; K-562 leukemia; SK-MEL-28 melanoma; DU-145 prostate; EKVX NSCLC; MCF7 breast; SR leukemia; SN12C renal; HOP-62 NSCLC.
Common to all, as to assay: growth of human tumour cells (NCI), 48 h

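Cells were grown in 96-well plates and exposed to each compound for 48 hours at five concentrations; endpoints were interpolated linearly between bracketing concentrations, or set to the highest concentration if not reached. GI50: concentration for 50% inhibition of growth. TGI: total growth inhibition.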 Where only a bound is given, the exact number is not on record here.

For the compound `CC1=C(C(=O)Nc2ccc(Cl)c(Cl)c2)C(c2cccc(Cl)c2)NC(=S)N1` (configuration not stated), the GI50 in the assay on M14 melanoma was 9.75 µM; in the assay with BT-549 breast, 16.4 µM; in the assay with K-562 leukemia, 19.7 µM; in the assay with SK-MEL-28 melanoma, 15.6 µM; with DU-145 prostate it was 14.4 µM; in the assay on EKVX NSCLC it was 12.2 µM. For the same compound, the GI50 in the assay with MCF7 breast is over 50 µM; in the assay with SR leukemia, 17.1 µM; in the assay on SN12C renal, 8.4 µM; in the assay with HOP-62 NSCLC it was 10.3 µM. Moreover, the TGI in the assay on M14 melanoma is 20.2 µM; in the assay with BT-549 breast, 38.6 µM; in the assay with K-562 leukemia, over 50 µM; in the assay with SK-MEL-28 melanoma, over 50 µM; in the assay with DU-145 prostate, 44 µM; with EKVX NSCLC it was 28.8 µM. Further, the TGI in the assay on MCF7 breast is over 50 µM; in the assay with SR leukemia, over 50 µM; with SN12C renal, 18.3 µM; with HOP-62 NSCLC, 19.2 µM.
With `C(=N\Nc1ccc2ccccc2n1)/c1ccccn1`, the GI50 with M14 melanoma was 0.565 µM; with BT-549 breast it was 1.1 µM; in the assay on K-562 leukemia, 0.487 µM; with SK-MEL-28 melanoma, 1.96 µM; with DU-145 prostate, 0.374 µM; in the assay with EKVX NSCLC it was 0.37 µM. Also, the GI50 in the assay with MCF7 breast is 0.44 µM; in the assay with SR leukemia it was 0.328 µM; in the assay on SN12C renal it was 0.483 µM; in the assay on HOP-62 NSCLC, 0.431 µM. The TGI with M14 melanoma is 3.45 µM; with BT-549 breast, over 38.9 µM; in the assay on K-562 leukemia it was over 39.1 µM; with SK-MEL-28 melanoma it was over 100 µM; in the assay with DU-145 prostate, over 37.7 µM; in the assay with EKVX NSCLC it was over 32.9 µM. Moreover, the TGI is over 100 µM with MCF7 breast, over 100 µM in the assay on SN12C renal and 6.98 µM in the assay on HOP-62 NSCLC.
On to `CC(=O)c1c(C)c2cnc(Nc3ccc(N4CCNCC4)cn3)nc2n(C2CCCC2)c1=O`, for which the GI50 in the assay on M14 melanoma was 9.13 µM; in the assay with BT-549 breast, 13.6 µM; in the assay with K-562 leukemia, 3.34 µM; in the assay with SK-MEL-28 melanoma, 12.3 µM; in the assay with DU-145 prostate, 9.82 µM; with EKVX NSCLC it was 12.5 µM. The GI50 is 0.585 µM with MCF7 breast, 1.88 µM in the assay on SR leukemia, 7.37 µM with SN12C renal and 12.8 µM with HOP-62 NSCLC. The TGI in the assay on M14 melanoma was 23.6 µM; in the assay with BT-549 breast, 27.3 µM; in the assay with K-562 leukemia it was 19.7 µM; in the assay on SK-MEL-28 melanoma it was 25.7 µM; in the assay with DU-145 prostate, 21.7 µM; in the assay on EKVX NSCLC, 26.3 µM. The TGI amounted to 18.7 µM in the assay on MCF7 breast, 20.7 µM in the assay with SR leukemia, 21.6 µM in the assay on SN12C renal and 26.2 µM with HOP-62 NSCLC.
In the case of `O=C(CI)Nc1ccc(Br)cc1`, the GI50 with M14 melanoma is 1.92 µM; in the assay with BT-549 breast, 1.64 µM; in the assay on K-562 leukemia, 2.53 µM; in the assay with SK-MEL-28 melanoma it was 3.82 µM; in the assay with DU-145 prostate, 1.77 µM; in the assay on EKVX NSCLC it was 2.25 µM. For the same compound, the GI50 in the assay on MCF7 breast was 1.91 µM; in the assay on SR leukemia, 0.365 µM; with HOP-62 NSCLC it was 1.89 µM. Besides, the TGI in the assay on M14 melanoma was 3.85 µM; in the assay on BT-549 breast it was 3.14 µM; in the assay with K-562 leukemia it was over 100 µM; in the assay on SK-MEL-28 melanoma it was 11.3 µM; in the assay with DU-145 prostate it was 3.18 µM; in the assay on EKVX NSCLC it was 5.85 µM. Also, the TGI in the assay on MCF7 breast was 3.95 µM; in the assay on SR leukemia, over 100 µM; in the assay with HOP-62 NSCLC it was 3.82 µM.
In the case of `COc1ccc2c(c1)/C(=N/OC(C)=O)c1c-2c(OC)nc2ccccc12`, the GI50 in the assay with M14 melanoma, in the assay with BT-549 breast, in the assay on K-562 leukemia, with SK-MEL-28 melanoma, with DU-145 prostate and in the assay with EKVX NSCLC was over 100 µM throughout. The GI50 with MCF7 breast is 88.3 µM; in the assay with SR leukemia it was 21.6 µM; in the assay with SN12C renal, 59.9 µM; in the assay with HOP-62 NSCLC it was 83.7 µM. The TGI in the assay with M14 melanoma, in the assay with BT-549 breast, in the assay with K-562 leukemia, in the assay on SK-MEL-28 melanoma, with DU-145 prostate and in the assay on EKVX NSCLC was over 100 µM each time. Moreover, the TGI in the assay with MCF7 breast, with SR leukemia, in the assay on SN12C renal and in the assay on HOP-62 NSCLC was over 100 µM in each case.
In the case of `COc1ccc(C(O)c2ccccn2)cc1` (configuration not stated), the TGI in the assay with M14 melanoma, in the assay with BT-549 breast, with K-562 leukemia, in the assay with SK-MEL-28 melanoma, in the assay with DU-145 prostate and with EKVX NSCLC was over 100 µM each time. For the same compound, the TGI in the assay with MCF7 breast, in the assay with SR leukemia, in the assay with SN12C renal and in the assay with HOP-62 NSCLC was over 100 µM throughout.
For the compound `FC(F)(F)c1cccc(-c2[nH]ncc2-c2nnnn2-c2ccccc2)c1`, the GI50 in the assay with M14 melanoma is 3.21 µM; in the assay with BT-549 breast, 3.78 µM; in the assay on K-562 leukemia, 3.3 µM; with SK-MEL-28 melanoma it was 5.6 µM; with DU-145 prostate, 7.43 µM; in the assay on EKVX NSCLC, 8.43 µM. Besides, the GI50 was 3.3 µM in the assay with MCF7 breast, 1.94 µM in the assay on SR leukemia, 9.76 µM in the assay on SN12C renal and 7.88 µM with HOP-62 NSCLC. Besides, the TGI in the assay with M14 melanoma came to 11.6 µM; in the assay on BT-549 breast it was 13.9 µM; in the assay with K-562 leukemia, 15.8 µM; in the assay with SK-MEL-28 melanoma, 19.1 µM; in the assay on DU-145 prostate it was 21.5 µM; in the assay with EKVX NSCLC it was 29.7 µM. The TGI was found to be 13.7 µM in the assay on MCF7 breast, 5.42 µM with SR leukemia, 21.9 µM in the assay with SN12C renal and 23.4 µM in the assay on HOP-62 NSCLC.
For the compound `Oc1[nH]c2ccccc2c1C=Nc1ccc(-n2cncn2)cc1`, the GI50 in the assay with M14 melanoma is over 25 µM; in the assay with BT-549 breast, over 18.9 µM; in the assay on K-562 leukemia, 13.6 µM; with SK-MEL-28 melanoma it was over 25 µM; in the assay with DU-145 prostate, over 22.5 µM; with EKVX NSCLC, over 25 µM. Besides, the GI50 with MCF7 breast was over 25 µM; in the assay on SR leukemia it was 19 µM; in the assay with SN12C renal, 14.6 µM; in the assay on HOP-62 NSCLC, over 13.8 µM. The TGI in the assay on M14 melanoma, in the assay on BT-549 breast, with K-562 leukemia, with SK-MEL-28 melanoma, with DU-145 prostate and with EKVX NSCLC was over 25 µM each time. For the same compound, the TGI is over 25 µM in the assay on MCF7 breast, over 25 µM in the assay with SR leukemia, over 25 µM in the assay on SN12C renal and over 22.2 µM in the assay on HOP-62 NSCLC.
